Patent US20180057507A1, “INHIBITORS OF DUAL LEUCINE ZIPPER (DLK) KINASE FOR THE TREATMENT OF DISEASE” (Board of Regents, The University of Texas System, priority 2016, published 2018)
pIC50, pKd: −log10 of the molar value.

Assays:
human DLK [1] = biological target: T1, human DLK (Homo sapiens, UniProt Q12852); assay: Phospho-cJun Cellular Assay; assay type: cell-based; design: expressed in transfected cells; conditions: HEK293 cells stably transfected with Dox-inducible human DLK; p-cJun (Ser63); 5 h compound incubation
T1 sequence (Q12852 1-859): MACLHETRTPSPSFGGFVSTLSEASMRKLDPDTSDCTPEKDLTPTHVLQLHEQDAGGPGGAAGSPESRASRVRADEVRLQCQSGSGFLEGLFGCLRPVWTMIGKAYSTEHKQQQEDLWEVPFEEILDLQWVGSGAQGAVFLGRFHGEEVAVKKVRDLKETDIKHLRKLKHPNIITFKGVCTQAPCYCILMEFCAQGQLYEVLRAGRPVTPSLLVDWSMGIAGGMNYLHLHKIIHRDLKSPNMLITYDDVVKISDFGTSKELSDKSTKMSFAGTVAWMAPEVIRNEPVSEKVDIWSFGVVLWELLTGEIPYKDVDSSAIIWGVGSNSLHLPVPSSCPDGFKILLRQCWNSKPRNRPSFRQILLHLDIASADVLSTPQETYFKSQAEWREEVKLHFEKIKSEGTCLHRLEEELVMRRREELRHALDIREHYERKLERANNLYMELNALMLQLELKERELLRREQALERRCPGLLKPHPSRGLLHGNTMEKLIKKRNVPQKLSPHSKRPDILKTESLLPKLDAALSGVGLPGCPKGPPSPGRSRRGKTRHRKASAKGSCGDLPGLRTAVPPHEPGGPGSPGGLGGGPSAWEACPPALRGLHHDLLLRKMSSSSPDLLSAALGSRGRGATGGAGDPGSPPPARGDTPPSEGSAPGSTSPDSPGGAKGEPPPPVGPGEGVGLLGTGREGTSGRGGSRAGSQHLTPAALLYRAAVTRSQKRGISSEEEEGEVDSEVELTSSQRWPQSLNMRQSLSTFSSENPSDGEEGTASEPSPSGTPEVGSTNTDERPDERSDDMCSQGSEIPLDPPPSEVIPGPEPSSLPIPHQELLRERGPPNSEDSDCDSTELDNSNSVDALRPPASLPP
Procedure, shortened: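 HEK293 cells with doxycycline-induced human DLK (induced 20 h; uninduced cells as negative control) treated with compound for 5 h at 37 °C. Phospho-cJun (Ser63) measured in lysates with detection-antibody kit; IC50 from variable-slope dose-response fit.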

human DLK [2] = biological target: T1, human DLK; assay: DLK Kd Determinations (KINOMEscan KdELECT, DiscoveRx); design: full length of human DLK (amino acids 1-859); host or cells: transiently transfected HEK293 cells; unpurified extract; conditions: fusion protein of full length human DLK (amino acids 1-859) and NFkB DNA binding domain; qPCR readout; duplicate
Procedure, shortened: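 Kd values were fitted by Hill equation (slope −1) from duplicate 11-point 3-fold dilutions starting at 30,000 nM. Bead-immobilized ligand competed with compound for DNA-tagged full-length human DLK fusion in HEK293 extract (final DMSO 0.9%, 1 h, room temperature), with qPCR readout of bound kinase.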

SMILES: Nc1ncc(-c2cn([C@H]3[C@@H]4CN(CCF)C[C@@H]43)c(CC3CC3)n2)cc1C(F)(F)F [Example 77, 5-(2-(cyclopropylmethyl)-1-((1R,5S,6s)-3-(2-fluoroethyl)-3-azabicyclo[3.1.0]hexan-6-yl)-1H-imidazol-4-yl)-3-(trifluoromethyl)pyridin-2-amine]
- pIC50 (human DLK [1]): 5.83
- pKd (human DLK [2]): 7.77
